This passage reports IC50 results from patent US20220169654A1, “New Organic Compounds” (Servier Pharmaceuticals LLC, priority 2020, published 2022).

For one assay, the target named is T1, MAT2A homodimer (Homo sapiens, UniProt P31153).
T1 construct: inferred from Ni sepharose purification with imidazole elution; made in house; host or cells: Sf9 insect cells, baculovirus (Bac to Bac, pFASTBAC1)
In words: MAT2A inhibition (biochemical, liberated phosphate, PiColorLock Gold). The conditions noted are these: recombinant MAT2A homodimer; IC50 bin with Max Inh.; read-out: Enzyme Inhibition Bin. Summed up:
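Baculovirus/Sf9-expressed, Ni-purified MAT2A (4 μg/mL) preincubated with compound 60 min at 25 °C in Tris pH 8.0/KCl/MgCl2 buffer. Reaction started with 500 μM ATP and 400 μM L-methionine (substrate-mix concentrations), run 60 min at 25 °C. Phosphate measured colorimetrically against a phosphate standard curve to give IC50.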

In assay [1] the test system is SAM in HCT116 human colon carcinoma cell line with MTAP gene deleted (MTAP −/−). In words: Cellular assay of target engagement (SAM), LC-MS/MS, 72 hrs. It is filed as cell-based. As to conditions: HCT-116, IC50 bin with Max Inh., read-out: Cell 72 h SAM Inhibition (MTAP −/−). Summed up: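 MTAP-deleted HCT116 cells plated 24 h, then given 10-point 3-fold dilutions for 72 hrs at 37° C. Intracellular SAM extracted in cold 80% methanol with 1M acetic acid and d3-SAM standard, quantified by LC-MS/MS (MRM m/z 399.2→250.1); IC50 derived.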

The next assay relates to HCT116 MTAP−/−. In words: Inhibition of cellular proliferation, 4 days, Cell Titer Glo, HCT116 MTAP−/−. Format: cell-based. The conditions noted are these: Homo sapiens, HCT-116, 96 h, IC50 bin with Max Inh., read-out: 4 Day Relative Growth Inhibition (MTAP −/−). Summed up:
(§1)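 Isogenic HCT116 pair differing only in MTAP status, plated 24 h before treatment with 10-point 3-fold dilutions; 4 days at 37° C./5% CO2. Cell Titer Glo luminescence, blank-subtracted and normalised to 0.2% DMSO control, gives percentage proliferation vs log molar concentration for IC50.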

Another assay relates to HCT116 MTAP+/+. In words: Inhibition of cellular proliferation, 4 days, Cell Titer Glo, HCT116 MTAP+/+. It is filed as cell-based. As to conditions: Homo sapiens, HCT-116, 96 h, IC50 bin with Max Inh., read-out: 4 Day Relative Growth Inhibition (MTAP +/+). The gist of the method: as §1

T1 sequence (P31153 whole entry): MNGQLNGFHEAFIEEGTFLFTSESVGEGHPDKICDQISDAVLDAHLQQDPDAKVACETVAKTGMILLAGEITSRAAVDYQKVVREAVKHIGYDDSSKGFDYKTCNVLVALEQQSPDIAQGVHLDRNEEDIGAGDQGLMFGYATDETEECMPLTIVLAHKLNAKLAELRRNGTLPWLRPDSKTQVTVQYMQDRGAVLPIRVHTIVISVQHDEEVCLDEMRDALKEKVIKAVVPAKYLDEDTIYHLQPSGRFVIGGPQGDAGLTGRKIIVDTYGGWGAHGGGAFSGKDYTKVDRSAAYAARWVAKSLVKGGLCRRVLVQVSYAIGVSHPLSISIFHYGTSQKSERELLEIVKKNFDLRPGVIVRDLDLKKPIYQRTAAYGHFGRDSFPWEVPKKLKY

Take `Cn1cc2cc(-n3nc4c(C#N)cn(CC5CC5)c4c(-c4ccc(Cl)cc4)c3=O)ccc2n1` [Example 139, 4-(4-chlorophenyl)-5-(cyclopropylmethyl)-2-(2-methyl-2H-indazol-5-yl)-3-oxo-3,5-dihydro-2H-pyrrolo[3,2-c]pyridazine-7-carbonitrile]: the IC50 (at MAT2A homodimer; in assay [1]; in the assay on HCT116 MTAP−/−; in the assay on HCT116 MTAP+/+) was below 100 nM in each case.

With `Cc1nc2nn(-c3ccc4nn(C)cc4c3)c(=O)c(-c3ccc(OC(F)F)cc3)c2n1CC1CC1` [Example 191, 5-(cyclopropylmethyl)-4-(4-(difluoromethoxy)phenyl)-6-methyl-2-(2-methyl-2H-indazol-5-yl)-2,5-dihydro-3H-imidazo[4,5-c]pyridazin-3-one], the IC50 on MAT2A homodimer was below 100 nM; in assay [1], below 100 nM; in the assay with HCT116 MTAP−/−, below 100 nM; in the assay with HCT116 MTAP+/+ it was above 1000 nM.

Turning to `Cc1ccc(-c2c(=O)n(-c3ccc4nn(C)cc4c3)nc3cnn(CC4CC4)c23)cn1` [Example 222, 1-(cyclopropylmethyl)-5-(2-methyl-2H-indazol-5-yl)-7-(6-methylpyridin-3-yl)-1,5-dihydro-6H-pyrazolo[4,3-c]pyridazin-6-one], the IC50 on MAT2A homodimer was below 100 nM; in assay [1], 100 to 1000 nM; with HCT116 MTAP−/−, 100 to 1000 nM; in the assay with HCT116 MTAP+/+, above 1000 nM.

Turning to `Cc1cn(CC2CC2)c2c(-c3ccc(C4CC4)nc3)c(=O)n(-c3ccc4nn(C)cc4c3)nc12` [Example 234, 5-(cyclopropylmethyl)-4-(6-cyclopropylpyridin-3-yl)-7-methyl-2-(2-methyl-2H-indazol-5-yl)-2,5-dihydro-3H-pyrrolo[3,2-c]pyridazin-3-one], the IC50 (on MAT2A homodimer; in assay [1]; with HCT116 MTAP−/−; with HCT116 MTAP+/+) was below 100 nM throughout.

In the case of `O=c1c(-c2ccc(OC(F)F)cc2)c2c(ccn2CC2CC2)nn1-c1ccc2ncsc2c1` [Example 224, 2-(benzo[d]thiazol-6-yl)-5-(cyclopropylmethyl)-4-(4-(difluoromethoxy)phenyl)-2,5-dihydro-3H-pyrrolo[3,2-c]pyridazin-3-one], the IC50 at MAT2A homodimer was below 100 nM; in assay [1], below 100 nM; with HCT116 MTAP−/− it was below 100 nM; with HCT116 MTAP+/+ it was 100 to 1000 nM.

Regarding `[2H]C([2H])([2H])Oc1ccc(-c2c(=O)n(-c3ccc4nn(C)cc4c3)nc3c(C#N)cn(CC4CC4)c23)cc1` [Example 161, 5-(cyclopropylmethyl)-4-(4-(methoxy-d3)phenyl)-2-(2-methyl-2H-indazol-5-yl)-3-oxo-3,5-dihydro-2H-pyrrolo[3,2-c]pyridazine-7-carbonitrile], the IC50 is below 100 nM on MAT2A homodimer, below 100 nM in assay [1], below 100 nM with HCT116 MTAP−/− and above 1000 nM in the assay with HCT116 MTAP+/+.

Turning to `CCCn1cc(C#N)c2nn(-c3ccc4nn(C)cc4c3)c(=O)c(-c3ccc(C4CC4)nc3)c21` [Example 127, 4-(6-cyclopropylpyridin-3-yl)-2-(2-methyl-2H-indazol-5-yl)-3-oxo-5-propyl-3,5-dihydro-2H-pyrrolo[3,2-c]pyridazine-7-carbonitrile], the IC50 on MAT2A homodimer was below 100 nM; in assay [1], below 100 nM; in the assay with HCT116 MTAP−/− it was 100 to 1000 nM; with HCT116 MTAP+/+ it was above 1000 nM.

As to `Cn1cc2cc(-n3nc4c(C#N)cn(CC5CCC5)c4c(-c4ccc(C5CC5)nc4)c3=O)ccc2n1` [Example 159, 5-(cyclobutylmethyl)-4-(6-cyclopropylpyridin-3-yl)-2-(2-methyl-2H-indazol-5-yl)-3-oxo-3,5-dihydro-2H-pyrrolo[3,2-c]pyridazine-7-carbonitrile], the IC50 was below 100 nM at MAT2A homodimer, below 100 nM in assay [1], 100 to 1000 nM in the assay on HCT116 MTAP−/− and above 1000 nM in the assay on HCT116 MTAP+/+.

In the case of `Cn1cc2cc(-n3nc4ccn(CC5CC5)c4c(-c4ccc(OC(F)F)nc4)c3=O)ccc2n1` [Example 113, 5-(cyclopropylmethyl)-4-(6-(difluoromethoxy)pyridin-3-yl)-2-(2-methyl-2H-indazol-5-yl)-2,5-dihydro-3H-pyrrolo[3,2-c]pyridazin-3-one], the IC50 at MAT2A homodimer is below 100 nM; in assay [1], below 100 nM; in the assay on HCT116 MTAP−/− it was below 100 nM; with HCT116 MTAP+/+, above 1000 nM.

Consider `Cn1cc2cc(-n3nc4ccn(CC5CC5)c4c(-c4ccc(Cl)cc4)c3=O)ccc2n1` [Example 112, 4-(4-chlorophenyl)-5-(cyclopropylmethyl)-2-(2-methyl-2H-indazol-5-yl)-2,5-dihydro-3H-pyrrolo[3,2-c]pyridazin-3-one], for which the IC50 on MAT2A homodimer was below 100 nM; in assay [1] it was below 100 nM; in the assay on HCT116 MTAP−/−, below 100 nM; in the assay on HCT116 MTAP+/+, above 1000 nM.

Take `Cc1ccc(-c2c(=O)n(-c3ccc4nn(C)cc4c3)nc3c(C)nn(CC4CC4)c23)cn1` [Example 217, 1-(cyclopropylmethyl)-3-methyl-5-(2-methyl-2H-indazol-5-yl)-7-(6-methylpyridin-3-yl)-1,5-dihydro-6H-pyrazolo[4,3-c]pyridazin-6-one]: the IC50 on MAT2A homodimer is below 100 nM; in assay [1], below 100 nM; in the assay on HCT116 MTAP−/−, below 100 nM; in the assay with HCT116 MTAP+/+, above 1000 nM.

Regarding `CC(C)Cn1cc(C#N)c2nn(-c3ccc4nn(C)cc4c3)c(=O)c(-c3ccc(OC(F)F)cc3)c21` [Example 116, 4-(4-(difluoromethoxy)phenyl)-5-isobutyl-2-(2-methyl-2H-indazol-5-yl)-3-oxo-3,5-dihydro-2H-pyrrolo[3,2-c]pyridazine-7-carbonitrile], the IC50 is below 100 nM on MAT2A homodimer, below 100 nM in assay [1], 100 to 1000 nM with HCT116 MTAP−/− and above 1000 nM with HCT116 MTAP+/+.

In the case of `Cn1cc2cc(-n3nc4c(C#N)cn(C[C@H]5CC5(F)F)c4c(-c4ccc(C5CC5)nc4)c3=O)ccc2n1` [Example 269, (R)-4-(6-cyclopropylpyridin-3-yl)-5-((2,2-difluorocyclopropyl)methyl)-2-(2-methyl-2H-indazol-5-yl)-3-oxo-3,5-dihydro-2H-pyrrolo[3,2-c]pyridazine-7-carbonitrile], the IC50 at MAT2A homodimer was below 100 nM; in assay [1] it was below 100 nM; with HCT116 MTAP−/−, above 1000 nM; in the assay on HCT116 MTAP+/+, above 1000 nM.

Turning to `Cc1nn(CC2CC2)c2c(-c3ccc(C4CC4)cc3)c(=O)n(-c3ccc4nn(C)cc4c3)nc12` [Example 213, 1-(cyclopropylmethyl)-7-(4-cyclopropylphenyl)-3-methyl-5-(2-methyl-2H-indazol-5-yl)-1,5-dihydro-6H-pyrazolo[4,3-c]pyridazin-6-one], the IC50 was below 100 nM at MAT2A homodimer, below 100 nM in assay [1], below 100 nM in the assay with HCT116 MTAP−/− and above 1000 nM with HCT116 MTAP+/+.

In the case of `Cn1cc2cc(-n3nc4c(C(N)=O)cn(CC5CC5)c4c(-c4ccc(Cl)cc4)c3=O)ccc2n1` [Example 170, 4-(4-chlorophenyl)-5-(cyclopropylmethyl)-2-(2-methyl-2H-indazol-5-yl)-3-oxo-3,5-dihydro-2H-pyrrolo[3,2-c]pyridazine-7-carboxamide], the IC50 is below 100 nM on MAT2A homodimer, below 100 nM in assay [1], below 100 nM in the assay with HCT116 MTAP−/− and above 1000 nM in the assay on HCT116 MTAP+/+.

With `COc1ccc(-c2c(=O)n(-c3ccc4nn(C)cc4c3)nc3ccn(CC4CC4)c23)cn1` [Example 110, 5-(cyclopropylmethyl)-4-(6-methoxypyridin-3-yl)-2-(2-methyl-2H-indazol-5-yl)-2,5-dihydro-3H-pyrrolo[3,2-c]pyridazin-3-one], the IC50 was below 100 nM at MAT2A homodimer, below 100 nM in assay [1], below 100 nM in the assay on HCT116 MTAP−/− and above 1000 nM with HCT116 MTAP+/+.

For `CC(C)c1cn(CC2CC2)c2c(-c3ccc(C4CC4)nc3)c(=O)n(-c3ccc4nn(C)cc4c3)nc12` [Example 248, 5-(cyclopropylmethyl)-4-(6-cyclopropylpyridin-3-yl)-7-isopropyl-2-(2-methyl-2H-indazol-5-yl)-2,5-dihydro-3H-pyrrolo[3,2-c]pyridazin-3-one], the IC50 is below 100 nM at MAT2A homodimer, below 100 nM in assay [1], below 100 nM in the assay on HCT116 MTAP−/− and above 1000 nM in the assay on HCT116 MTAP+/+.

As to `Cn1cc2cc(-n3nc4nnn(CC5CC5)c4c(-c4ccc(C5CC5)nc4)c3=O)ccc2n1` [Example 210, 1-(cyclopropylmethyl)-7-(6-cyclopropylpyridin-3-yl)-5-(2-methyl-2H-indazol-5-yl)-1,5-dihydro-6H-[1,2,3]triazolo[4,5-c]pyridazin-6-one], the IC50 at MAT2A homodimer is 100 to 1000 nM; in assay [1] it was above 1000 nM; with HCT116 MTAP−/− it was 100 to 1000 nM; in the assay with HCT116 MTAP+/+, above 1000 nM.

Regarding `Cn1cc2cc(-n3nc4c(C#N)cn(CC5CC5)c4c(-c4ccc(C5(C#N)CC5)nc4)c3=O)ccc2n1` [Example 120, 4-(6-(1-cyanocyclopropyl)pyridin-3-yl)-5-(cyclopropylmethyl)-2-(2-methyl-2H-indazol-5-yl)-3-oxo-3,5-dihydro-2H-pyrrolo[3,2-c]pyridazine-7-carbonitrile], the IC50 at MAT2A homodimer was below 100 nM; in assay [1] it was 100 to 1000 nM; with HCT116 MTAP−/−, above 1000 nM; with HCT116 MTAP+/+ it was above 1000 nM.
